In assay [1] the target is ROCK2 (Homo sapiens, UniProt O75116). Description: In vitro inhibitory activity assay ROCK2 (Method A, ADP-Glo, 10 μM ATP). It counts as biochemical. As to conditions: ATP 10 μM, read-out: Method A ROCK 2 (Ki). Here is the method: (§1) In vitro inhibitory activity assay description ROCK1 and ROCK2
(§2) The effectiveness of compounds of the present invention to inhibit Rho kinase activity can be determined in a 10 μl assay containing 40 mM Tris pH7.5, 20 mM MgCl2 0.1 mg/mL BSA, 50 μM DTT and 2.5 μM peptide substrate (Myelin Basic Protein) using an ADP-Glo kit (Promega). Compounds were dissolved in DMSO such that the final concentration of DMSO was 1% in the assay. All reactions/incubations are performed at 25° C. Compound (2 uL) and either Rho kinase 1 or 2 (4 μl) were mixed and incubated for 30 min. Reactions were initiated by addition of ATP (4 μL) such that the final concentration of ATP in the assay was 10 μM. After a 1 hour incubation […] of ADP-Glo Reagent was added and after a further 45 minutes incubation 20 uL of Kinase Detection Buffer was added and the mixture incubated for a further 30 minutes. The luminescent signal was measured on a luminometer. […] Compounds were tested in dose-response format and the inhibition of kinase activity was calculated at each concentration of compound. To determine the IC50 (concentration of compound required to inhibit 50% of the enzyme activity) data were fit to a plot of % inhibition vs Log10 compound concentration using a sigmoidal fit with a variable slope and fixing the maximum to 100% and the minimum to 0%. To determine the Ki values the Cheng-Prusoff equation was utilized (Ki=IC50/(1+[S]/Km).
In general terms: ADP-Glo first removes unused ATP, then detects ADP through luciferase.

Assay [2] deals with ROCK1 (Homo sapiens, UniProt Q13464). Description: In vitro inhibitory activity assay ROCK1 (Method A, ADP-Glo, 10 μM ATP). The assay is classed as biochemical. As to conditions: ATP 10 μM, read-out: Method A ROCK 1 (Ki). Here is the method:
as §1, §2

ROCK2, sequence (O75116 whole entry): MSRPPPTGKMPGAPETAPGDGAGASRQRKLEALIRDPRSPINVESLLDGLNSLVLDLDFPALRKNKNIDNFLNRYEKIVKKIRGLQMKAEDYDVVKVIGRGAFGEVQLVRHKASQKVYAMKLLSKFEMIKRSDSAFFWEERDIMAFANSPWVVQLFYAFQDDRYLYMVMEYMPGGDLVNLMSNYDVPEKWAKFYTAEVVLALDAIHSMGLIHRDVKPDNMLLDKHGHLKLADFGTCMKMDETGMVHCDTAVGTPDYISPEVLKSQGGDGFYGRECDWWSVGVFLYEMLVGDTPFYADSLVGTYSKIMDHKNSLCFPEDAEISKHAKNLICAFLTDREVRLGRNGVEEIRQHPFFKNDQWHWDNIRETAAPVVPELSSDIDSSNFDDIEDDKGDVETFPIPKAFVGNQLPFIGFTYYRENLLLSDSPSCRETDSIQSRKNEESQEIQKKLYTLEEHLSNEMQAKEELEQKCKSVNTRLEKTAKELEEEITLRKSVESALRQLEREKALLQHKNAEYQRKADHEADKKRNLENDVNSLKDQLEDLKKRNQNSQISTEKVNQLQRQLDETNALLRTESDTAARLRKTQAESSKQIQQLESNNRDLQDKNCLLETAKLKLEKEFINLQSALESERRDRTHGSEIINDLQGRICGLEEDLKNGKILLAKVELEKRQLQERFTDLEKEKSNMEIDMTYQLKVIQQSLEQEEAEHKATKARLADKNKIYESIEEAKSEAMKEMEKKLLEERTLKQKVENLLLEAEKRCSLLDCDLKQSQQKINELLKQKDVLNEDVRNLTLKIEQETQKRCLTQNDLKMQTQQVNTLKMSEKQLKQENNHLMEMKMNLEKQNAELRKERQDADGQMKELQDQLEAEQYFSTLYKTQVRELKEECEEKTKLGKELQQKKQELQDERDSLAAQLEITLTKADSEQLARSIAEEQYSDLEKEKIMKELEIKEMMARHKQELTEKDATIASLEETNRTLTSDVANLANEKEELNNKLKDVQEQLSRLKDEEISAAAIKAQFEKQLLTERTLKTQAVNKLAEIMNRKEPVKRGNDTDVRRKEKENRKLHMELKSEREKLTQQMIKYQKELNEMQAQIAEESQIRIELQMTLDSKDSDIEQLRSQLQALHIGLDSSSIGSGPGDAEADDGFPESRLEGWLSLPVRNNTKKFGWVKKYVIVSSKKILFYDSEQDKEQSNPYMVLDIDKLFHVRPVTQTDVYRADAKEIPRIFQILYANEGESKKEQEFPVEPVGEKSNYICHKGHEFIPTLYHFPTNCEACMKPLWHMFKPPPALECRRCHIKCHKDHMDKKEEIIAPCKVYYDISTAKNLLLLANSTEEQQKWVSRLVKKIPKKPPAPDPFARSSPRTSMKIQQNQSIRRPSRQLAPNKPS
ROCK1, sequence (Q13464 whole entry): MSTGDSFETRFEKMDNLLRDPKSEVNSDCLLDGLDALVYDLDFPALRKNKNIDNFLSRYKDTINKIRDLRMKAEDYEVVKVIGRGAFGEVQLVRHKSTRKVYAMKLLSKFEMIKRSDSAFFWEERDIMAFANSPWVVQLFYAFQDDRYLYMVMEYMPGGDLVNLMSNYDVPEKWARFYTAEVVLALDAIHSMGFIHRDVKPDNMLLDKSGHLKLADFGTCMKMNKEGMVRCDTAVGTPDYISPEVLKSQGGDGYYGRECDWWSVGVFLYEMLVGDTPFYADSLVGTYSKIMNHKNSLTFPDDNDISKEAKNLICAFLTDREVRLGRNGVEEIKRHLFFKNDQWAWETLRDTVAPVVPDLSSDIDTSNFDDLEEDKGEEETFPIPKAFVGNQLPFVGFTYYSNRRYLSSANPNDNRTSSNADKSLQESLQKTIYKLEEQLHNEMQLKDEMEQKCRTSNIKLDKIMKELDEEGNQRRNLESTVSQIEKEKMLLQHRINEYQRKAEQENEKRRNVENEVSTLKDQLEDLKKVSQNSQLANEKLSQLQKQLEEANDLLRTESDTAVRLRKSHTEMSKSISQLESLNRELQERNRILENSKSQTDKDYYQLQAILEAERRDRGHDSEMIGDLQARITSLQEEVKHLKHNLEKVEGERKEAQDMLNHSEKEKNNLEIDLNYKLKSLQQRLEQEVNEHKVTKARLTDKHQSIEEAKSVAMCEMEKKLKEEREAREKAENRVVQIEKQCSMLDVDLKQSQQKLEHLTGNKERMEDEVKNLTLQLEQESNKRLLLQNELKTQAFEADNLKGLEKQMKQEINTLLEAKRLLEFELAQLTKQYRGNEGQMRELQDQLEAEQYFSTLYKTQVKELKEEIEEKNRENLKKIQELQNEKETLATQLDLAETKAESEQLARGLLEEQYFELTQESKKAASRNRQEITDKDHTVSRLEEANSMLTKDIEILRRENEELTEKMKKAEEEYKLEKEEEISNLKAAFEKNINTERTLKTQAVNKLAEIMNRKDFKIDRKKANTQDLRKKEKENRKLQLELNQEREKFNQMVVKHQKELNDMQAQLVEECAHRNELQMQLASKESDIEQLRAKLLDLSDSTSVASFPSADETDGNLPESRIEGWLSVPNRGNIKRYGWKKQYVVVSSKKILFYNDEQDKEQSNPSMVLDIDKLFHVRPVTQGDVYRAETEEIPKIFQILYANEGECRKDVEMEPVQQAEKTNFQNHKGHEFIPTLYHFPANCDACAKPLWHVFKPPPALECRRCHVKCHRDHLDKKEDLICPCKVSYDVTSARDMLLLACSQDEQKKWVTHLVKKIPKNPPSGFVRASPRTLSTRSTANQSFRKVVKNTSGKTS

The term Ki denotes the equilibrium dissociation constant of an inhibitor or competing ligand from its target. In the case of `Cn1nc(C(=O)Nc2cccc(CNc3ncc(-c4cn[nH]c4)c4c3CCO4)c2)c2ccccc21` [Example 41, N-(3-(((7-(1H-pyrazol-4-yl)-2,3-dihydrofuro[3,2-c]pyridin-4-yl)amino)methyl)phenyl)-1-methyl-1H-indazole-3-carboxamide], the Ki in assay [1] is 3 to 30 nM; in assay [2], above 30 nM.
In the same order, the values of `O=C(NCCN1CCOCC1)c1cccc(CNc2ncc(-c3cn[nH]c3)c3c2CCO3)c1` [Example 20, 3-(((7-(1H-pyrazol-4-yl)-2,3-dihydrofuro[3,2-c]pyridin-4-yl)amino)methyl)-N-(2-morpholinoethyl)benzamide] are at most 3 nM and at most 3 nM.
In the same order, the values of `O=C(Nc1cccc(CNc2ncc(-c3cn[nH]c3)c3c2CCO3)c1)c1ccc2c(c1)CCNC2` [Example 40, N-(3-(((7-(1H-pyrazol-4-yl)-2,3-dihydrofuro[3,2-c]pyridin-4-yl)amino)methyl)phenyl)-1,2,3,4-tetrahydroisoquinoline-6-carboxamide] are at most 3 nM and at most 3 nM.
In the same order, the values of `O=C(N[C@H](CO)c1ccccc1)c1cccc(CNc2ncc(-c3cn[nH]c3)c3c2CCO3)c1` [Example 23, (S)-3-(((7-(1H-pyrazol-4-yl)-2,3-dihydrofuro[3,2-c]pyridin-4-yl)amino)methyl)-N-(2-hydroxy-1-phenylethyl)benzamide] are at most 3 nM and at most 3 nM.
In the case of `O=C(NCCc1cccnc1)c1cccc(CNc2ncc(-c3cn[nH]c3)c3c2CCO3)c1` [Example 22, 3-(((7-(1H-pyrazol-4-yl)-2,3-dihydrofuro[3,2-c]pyridin-4-yl)amino)methyl)-N-(2-(pyridin-3-yl)ethyl)benzamide], the Ki in assay [1] and in assay [2] was at most 3 nM in each case.
Regarding `CN1CCc2nc(C(=O)Nc3cccc(CNc4ncc(-c5cn[nH]c5)c5c4CCO5)c3)sc2C1` [Example 37, N-(3-(((7-(1H-pyrazol-4-yl)-2,3-dihydrofuro[3,2-c]pyridin-4-yl)amino)methyl)phenyl)-5-methyl-4,5,6,7-tetrahydrothiazolo[5,4-c]pyridine-2-carboxamide], the Ki in assay [1] and in assay [2] was at most 3 nM throughout.
With `CN1Cc2ccc(CNC(=O)c3cccc(CNc4ncc(-c5cn[nH]c5)c5c4CCO5)c3)cc2C1` [Example 30, 3-(((7-(1H-pyrazol-4-yl)-2,3-dihydrofuro[3,2-c]pyridin-4-yl)amino)methyl)-N-((2-methylisoindolin-5-yl)methyl)benzamide], the Ki in assay [1] and in assay [2] was at most 3 nM each time.
As for `O=C(NCc1ccncc1)c1cccc(CNc2ncc(-c3cn[nH]c3)c3c2CCO3)c1` [Example 53, 3-(((7-(1H-pyrazol-4-yl)-2,3-dihydrofuro[3,2-c]pyridin-4-yl)amino)methyl)-N-(pyridin-4-ylmethyl)benzamide], the Ki in assay [1] and in assay [2] was at most 3 nM each time.
`O=C(Cc1ccccc1)Nc1cccc(CNc2ncc(-c3cn[nH]c3)c3c2CCO3)c1` [Example 50, N-(3-(((7-(1H-pyrazol-4-yl)-2,3-dihydrofuro[3,2-c]pyridin-4-yl)amino)methyl)phenyl)-2-phenylacetamide]: the Ki in assay [1] and in assay [2] was 3 to 30 nM throughout.
On to `Cn1ncc2cc(C(=O)Nc3cccc(CNc4ncc(-c5cn[nH]c5)c5c4CCO5)c3)ccc21` [Example 39, N-(3-(((7-(1H-pyrazol-4-yl)-2,3-dihydrofuro[3,2-c]pyridin-4-yl)amino)methyl)phenyl)-1-methyl-1H-indazole-5-carboxamide], for which the Ki in assay [1] and in assay [2] was at most 3 nM throughout.
Take `CN1CCc2sc(C(=O)Nc3cccc(CNc4ncc(-c5cn[nH]c5)c5c4CCO5)c3)nc2C1` [Example 36, N-(3-(((7-(1H-pyrazol-4-yl)-2,3-dihydrofuro[3,2-c]pyridin-4-yl)amino)methyl)phenyl)-5-methyl-4,5,6,7-tetrahydrothiazolo[4,5-c]pyridine-2-carboxamide]: the Ki in assay [1] and in assay [2] was at most 3 nM in each case.
`O=C(NCCc1ccncc1)c1cccc(CNc2ncc(-c3cn[nH]c3)c3c2CCO3)c1` [Example 17, 3-(((7-(1H-pyrazol-4-yl)-2,3-dihydrofuro[3,2-c]pyridin-4-yl)amino)methyl)-N-(2-(pyridin-4-yl)ethyl)benzamide]: the Ki in assay [1] and in assay [2] was at most 3 nM in each case.
Turning to `O=C(Nc1cc(CNc2ncc(-c3cn[nH]c3)c3c2CCO3)ccc1F)c1ccc2c(c1)CCNC2` [Example 47, N-(5-(((7-(1H-pyrazol-4-yl)-2,3-dihydrofuro[3,2-c]pyridin-4-yl)amino)methyl)-2-fluorophenyl)-1,2,3,4-tetrahydroisoquinoline-6-carboxamide], the Ki in assay [1] and in assay [2] was at most 3 nM throughout.
As for `O=C(NC1CCN(Cc2ccccc2)CC1)c1cccc(CNc2ncc(-c3cn[nH]c3)c3c2CCO3)c1` [Example 54, 3-(((7-(1H-pyrazol-4-yl)-2,3-dihydrofuro[3,2-c]pyridin-4-yl)amino)methyl)-N-(1-benzylpiperidin-4-yl)benzamide], the Ki in assay [1] and in assay [2] was at most 3 nM each time.
For `CN(C)Cc1ccc(CNC(=O)c2cccc(CNc3ncc(-c4cn[nH]c4)c4c3CCO4)c2)cc1` [Example 24, 3-(((7-(1H-pyrazol-4-yl)-2,3-dihydrofuro[3,2-c]pyridin-4-yl)amino)methyl)-N-(4-((dimethylamino)methyl)benzyl)benzamide], the Ki in assay [1] and in assay [2] was at most 3 nM each time.
As for `CN1CCc2nc(NC(=O)c3cccc(CNc4ncc(-c5cn[nH]c5)c5c4CCO5)c3)sc2C1` [Example 21, 3-(((7-(1H-pyrazol-4-yl)-2,3-dihydrofuro[3,2-c]pyridin-4-yl)amino)methyl)-N-(5-methyl-4,5,6,7-tetrahydrothiazolo[5,4-c]pyridin-2-yl)benzamide], the Ki in assay [1] and in assay [2] was at most 3 nM throughout.
Consider `O=C(Nc1cccc(CNc2ncc(-c3cn[nH]c3)c3c2CCO3)c1)c1nc2c(s1)CN(CCO)CC2` [Example 38, N-(3-(((7-(1H-pyrazol-4-yl)-2,3-dihydrofuro[3,2-c]pyridin-4-yl)amino)methyl)phenyl)-5-(2-hydroxyethyl)-4,5,6,7-tetrahydrothiazolo[5,4-c]pyridine-2-carboxamide], for which the Ki in assay [1] and in assay [2] was at most 3 nM in each case.
`CN(C)CCn1cc(NC(=O)c2cccc(CNc3ncc(-c4cn[nH]c4)c4c3CCO4)c2)cn1` [Example 27, 3-(((7-(1H-pyrazol-4-yl)-2,3-dihydrofuro[3,2-c]pyridin-4-yl)amino)methyl)-N-(1-(2-(dimethylamino)ethyl)-1H-pyrazol-4-yl)benzamide]: the Ki in assay [1] and in assay [2] was at most 3 nM each time.
With `Cn1ncc2c(C(=O)Nc3cccc(CNc4ncc(-c5cn[nH]c5)c5c4CCO5)c3)cccc21` [Example 42, N-(3-(((7-(1H-pyrazol-4-yl)-2,3-dihydrofuro[3,2-c]pyridin-4-yl)amino)methyl)phenyl)-1-methyl-1H-indazole-4-carboxamide], the Ki is at most 3 nM in assay [1] and 3 to 30 nM in assay [2].
For `CN(C)Cc1cccc(CNC(=O)c2cccc(CNc3ncc(-c4cn[nH]c4)c4c3CCO4)c2)c1` [Example 19, 3-(((7-(1H-pyrazol-4-yl)-2,3-dihydrofuro[3,2-c]pyridin-4-yl)amino)methyl)-N-(3-((dimethylamino)methyl)benzyl)benzamide], in that order: at most 3 nM and at most 3 nM.
In the same order, the values of `CN(C)Cc1cccc(C(=O)Nc2cccc(CNc3ncc(-c4cn[nH]c4)c4c3CCO4)c2)c1` [Example 49, N-(3-(((7-(1H-pyrazol-4-yl)-2,3-dihydrofuro[3,2-c]pyridin-4-yl)amino)methyl)phenyl)-3-((dimethylamino)methyl)benzamide] are at most 3 nM and at most 3 nM.
Take `O=C(NC1CCN(CCc2ccccc2)CC1)c1cccc(CNc2ncc(-c3cn[nH]c3)c3c2CCO3)c1` [Example 26, 3-(((7-(1H-pyrazol-4-yl)-2,3-dihydrofuro[3,2-c]pyridin-4-yl)amino)methyl)-N-(1-phenethylpiperidin-4-yl)benzamide]: the Ki in assay [1] and in assay [2] was at most 3 nM in each case.
On to `CN(C)Cc1cccc(NC(=O)c2cccc(CNc3ncc(-c4cn[nH]c4)c4c3CCO4)c2)c1` [Example 18, 3-(((7-(1H-pyrazol-4-yl)-2,3-dihydrofuro[3,2-c]pyridin-4-yl)amino)methyl)-N-(3-((dimethylamino)methyl)phenyl)benzamide], for which the Ki in assay [1] and in assay [2] was at most 3 nM in each case.
On to `CC(=O)Nc1cccc(C(C)Nc2ncc(-c3cn[nH]c3)c3c2CCO3)c1` (stereo not drawn) [Example 52, N-(3-(1-((7-(1H-pyrazol-4-yl)-2,3-dihydrofuro[3,2-c]pyridin-4-yl)amino)ethyl)phenyl)acetamide], for which the Ki in assay [1] and in assay [2] was 3 to 30 nM in each case.

The values above are taken from US20240082223A1, “DIHYDROFUROPYRIDINE DERIVATIVES AS RHO- KINASE INHIBITORS” (CHIESI FARMACEUTICI S.P.A., priority 2020, published 2024).
